Biological target: T1, Xanthine dehydrogenase/oxidase (Homo sapiens, UniProt P47989)
Assay: Inhibition of human xanthine oxidase

T1 sequence (P47989 whole entry): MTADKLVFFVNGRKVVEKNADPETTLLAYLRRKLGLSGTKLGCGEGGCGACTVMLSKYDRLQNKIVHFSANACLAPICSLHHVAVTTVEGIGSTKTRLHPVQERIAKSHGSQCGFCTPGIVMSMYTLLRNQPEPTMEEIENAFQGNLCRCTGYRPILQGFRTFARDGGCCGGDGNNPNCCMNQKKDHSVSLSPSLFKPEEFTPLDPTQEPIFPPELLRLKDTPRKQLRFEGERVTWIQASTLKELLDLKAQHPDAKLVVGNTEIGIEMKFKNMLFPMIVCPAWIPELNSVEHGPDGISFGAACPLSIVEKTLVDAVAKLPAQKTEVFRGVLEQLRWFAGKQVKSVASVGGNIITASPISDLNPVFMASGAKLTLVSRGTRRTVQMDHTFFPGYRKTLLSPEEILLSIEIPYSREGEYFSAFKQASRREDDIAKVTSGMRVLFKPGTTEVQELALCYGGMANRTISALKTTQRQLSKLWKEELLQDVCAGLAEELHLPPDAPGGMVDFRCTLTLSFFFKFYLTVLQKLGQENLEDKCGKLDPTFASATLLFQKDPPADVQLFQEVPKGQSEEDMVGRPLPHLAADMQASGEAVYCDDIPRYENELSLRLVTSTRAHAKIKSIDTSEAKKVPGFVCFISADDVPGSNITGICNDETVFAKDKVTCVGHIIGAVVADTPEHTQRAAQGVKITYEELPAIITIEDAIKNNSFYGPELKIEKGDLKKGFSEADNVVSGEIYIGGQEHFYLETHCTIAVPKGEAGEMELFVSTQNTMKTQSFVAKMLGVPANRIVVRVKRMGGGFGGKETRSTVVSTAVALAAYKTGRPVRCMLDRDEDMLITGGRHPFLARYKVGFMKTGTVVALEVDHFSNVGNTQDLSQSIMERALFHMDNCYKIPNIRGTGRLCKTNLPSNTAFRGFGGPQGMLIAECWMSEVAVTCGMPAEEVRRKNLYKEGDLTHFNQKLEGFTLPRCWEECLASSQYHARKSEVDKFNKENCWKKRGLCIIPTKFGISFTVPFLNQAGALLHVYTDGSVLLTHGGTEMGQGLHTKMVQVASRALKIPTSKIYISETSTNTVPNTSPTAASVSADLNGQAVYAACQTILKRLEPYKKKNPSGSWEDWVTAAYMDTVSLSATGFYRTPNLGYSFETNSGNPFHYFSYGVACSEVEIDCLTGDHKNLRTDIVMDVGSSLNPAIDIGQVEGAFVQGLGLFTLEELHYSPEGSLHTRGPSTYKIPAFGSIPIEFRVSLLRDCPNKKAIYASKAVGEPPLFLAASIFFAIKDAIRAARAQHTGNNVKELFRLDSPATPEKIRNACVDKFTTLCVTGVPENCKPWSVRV

Row | Structure (SMILES) | IC50 [µM]
1 | Cc1ccc2[nH]cnc2c1 | > 200
2 | O=[N+]([O-])c1ccc2[nH]cnc2c1 | 86.8
3 | Nc1ncnc2[nH]ncc12 | 30.3
4 | Cn1c(=O)[nH]c2nc[nH]c2c1=O [1-METHYLXANTHINE] | > 200
5 | Nc1nc(N)c2[nH]cnc2n1 [2,6-DIAMINOPURINE] | > 200
6 | Nc1ncc2[nH]cnc2n1 [2-AMINOPURINE] | > 200
7 | Nc1nc(Cl)c2nc[nH]c2n1 [6-CHLOROGUANINE] | > 200
8 | Cc1cc2nc[nH]c2cc1C [DIMEDAZOL] | > 200
9 | COc1nc(N)nc2nc[nH]c12 [METHYLGUANINE] | > 200
10 | Nc1nc2nc[nH]c2c(=S)[nH]1 [THIOGUANINE] | 92.4

Biological target: T1, Xanthine dehydrogenase/oxidase
Assay: Inhibition of human xanthine oxidase at 30 uM

Row | Structure (SMILES) | inhibition at 30 µM [%]
11 | Nc1ncnc2[nH]ncc12 | 49.8
12 | Nc1[nH]cnc2ncnc1-2 [ADENINE] | 61.3
13 | Oc1ncnc2[nH]ncc12 [ALLOPURINOL] | 93.8

— ChEMBL document CHEMBL1143034, “The screening and characterization of 6-aminopurine-based xanthine oxidase inhibitors” (Bioorg Med Chem, 2007)
